Results on 15 molecules are retold here after PubChem BioAssay (NCI).

Some test systems named below: IGROV1 ovarian; SF-295 CNS; SK-MEL-28 melanoma; SW-620 colon; OVCAR-3 ovarian; RPMI-8226 leukemia; SF-268 CNS; EKVX NSCLC; KM12 colon; NCI/ADR-RES ovarian.
What all share (assay): DTP human tumour cell line panel, 48 h

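Grown in 96-well plates, cells were treated for 48 hours with each compound at five concentrations. Insufficient inhibition: endpoint recorded as highest concentration tested. Definition used: TGI = concentration required for complete inhibition of growth.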 Where a SMILES comes first, the peptide text is derived from it. [ ]: non-standard residue; d: D form. The star is where a group is joined. Phe(4-NO2) = N[CH](Cc1ccc([N+](=O)[O-])cc1)C(=O)O; Boc = CC(C)(C)OC(=O)*

For orientation: TGI means the concentration giving total growth inhibition. A higher TGI goes with less potent growth arrest. For `CCC1=C(C[C@H]2NCCc3cc(OC)c(OC)cc32)C[C@H]2c3cc(OC)c(OC)cc3CCN2C1`, the concentration for total growth inhibition (TGI) with IGROV1 ovarian is 0.444 µM; in the experiment with SF-295 CNS, 0.189 µM; in the experiment with SK-MEL-28 melanoma, 0.192 µM; with SW-620 colon it was 11.3 µM; in the experiment with OVCAR-3 ovarian, 0.158 µM; in the experiment with RPMI-8226 leukemia it was 0.229 µM. The total growth inhibition concentration (TGI) with SF-268 CNS was 0.407 µM; with EKVX NSCLC, 0.175 µM.
Regarding `CC(CCc1nc2ccccc2s1)(c1ccc(O)cc1)c1ccc(O)cc1`, the concentration for total growth inhibition (TGI) was found to be 33.8 µM in the experiment with KM12 colon; 28.3 µM in the experiment with IGROV1 ovarian; 28.9 µM in the experiment with SF-295 CNS; 33.7 µM with SK-MEL-28 melanoma; 43.5 µM in the experiment with SW-620 colon; 31.3 µM in the experiment on OVCAR-3 ovarian. Further, the TGI in the experiment on SF-268 CNS stood at 40.5 µM; in the experiment on EKVX NSCLC it was 32.3 µM; with NCI/ADR-RES ovarian, 57.2 µM.
`Cc1cc2c(=O)c3ccc(Cl)cc3[nH]c2c(C(N)=O)c1C`: the TGI with KM12 colon, in the experiment with IGROV1 ovarian, in the experiment on SF-295 CNS, in the experiment on SK-MEL-28 melanoma, with SW-620 colon and in the experiment on OVCAR-3 ovarian was above 100 µM throughout. In addition, the TGI in the experiment on RPMI-8226 leukemia, in the experiment with SF-268 CNS and with EKVX NSCLC was above 100 µM in each case.
For `Cc1ccc(-n2nncc2[Si](C)(C)C)s1`, the TGI in the experiment with SF-295 CNS, in the experiment on SK-MEL-28 melanoma, in the experiment on SW-620 colon, in the experiment with OVCAR-3 ovarian, with RPMI-8226 leukemia and in the experiment on SF-268 CNS was above 100 µM in each case. This molecule gave a TGI in the experiment on NCI/ADR-RES ovarian above 100 µM.
Consider `Cc1cc(=O)[nH]c(NNC(C#N)c2ccccc2O)n1` (stereo not drawn), for which the total growth inhibition concentration (TGI) in the experiment with KM12 colon, in the experiment with IGROV1 ovarian, with SF-295 CNS, with SK-MEL-28 melanoma, in the experiment on SW-620 colon and in the experiment on OVCAR-3 ovarian was above 100 µM each time. Also, the TGI in the experiment with RPMI-8226 leukemia and with SF-268 CNS was above 100 µM each time.
Consider `CC(=O)CC(=O)N1CCSC1=S`, for which the TGI in the experiment on KM12 colon, in the experiment with IGROV1 ovarian, with SF-295 CNS, in the experiment with SK-MEL-28 melanoma, in the experiment with SW-620 colon and in the experiment with OVCAR-3 ovarian was above 10 µM in each case. For the same molecule, the TGI with RPMI-8226 leukemia, in the experiment with SF-268 CNS and with EKVX NSCLC was above 10 µM throughout.
On to `Cc1cc(C)c2c(c1)C/C(=C\c1cccc(C)c1C(=O)O)C2=O`, for which the TGI in the experiment on KM12 colon, in the experiment with IGROV1 ovarian, in the experiment on SF-295 CNS, in the experiment on SK-MEL-28 melanoma, in the experiment on SW-620 colon and in the experiment on OVCAR-3 ovarian was above 100 µM each time. The concentration for total growth inhibition (TGI) with RPMI-8226 leukemia, in the experiment with SF-268 CNS and with EKVX NSCLC was above 100 µM throughout.
Regarding `COC(=O)[C@@H](NS(=O)(=O)CC12CCC(CC1)C2(C)C)C(C)(C)C`, the TGI in the experiment with KM12 colon, in the experiment with IGROV1 ovarian, in the experiment with SF-295 CNS, in the experiment with SK-MEL-28 melanoma, in the experiment on SW-620 colon and with OVCAR-3 ovarian was above 100 µM in each case. Besides, the TGI in the experiment with SF-268 CNS, in the experiment with EKVX NSCLC and in the experiment with NCI/ADR-RES ovarian was above 100 µM throughout.
For the molecule `CCOc1ccc2nc3nc(=O)[nH]c(C)c3c(NC(C)(CO)CO)c2c1`, the TGI with KM12 colon, with IGROV1 ovarian, in the experiment on SF-295 CNS, in the experiment on SK-MEL-28 melanoma, in the experiment with SW-620 colon and in the experiment with OVCAR-3 ovarian was above 100 µM in each case. The TGI in the experiment with SF-268 CNS, in the experiment on EKVX NSCLC and in the experiment on NCI/ADR-RES ovarian was above 100 µM throughout.
For the molecule `COC(=O)C(Cc1c[nH]c2ccccc12)NC(=O)C(Cc1c[nH]c2ccccc12)NC(=O)C(Cc1c[nH]c2ccccc12)NC(=O)C(Cc1c[nH]c2ccccc12)NC(=O)C(Cc1c[nH]c2ccccc12)NC(=O)C(Cc1c[nH]c2ccccc12)NC(=O)C(Cc1c[nH]c2ccccc12)NC(=O)OC(C)(C)C` (stereo not drawn) (Boc-WWWWWWW-OMe; configuration not given here), the total growth inhibition concentration (TGI) in the experiment with IGROV1 ovarian, in the experiment with SK-MEL-28 melanoma, in the experiment on SW-620 colon, with OVCAR-3 ovarian, in the experiment on RPMI-8226 leukemia and with SF-268 CNS was above 100 µM throughout.
As to `[N-]=[N+]=Nc1nc2ccccc2c(N=[N+]=[N-])c1Cl`, the TGI in the experiment on KM12 colon, in the experiment with IGROV1 ovarian, in the experiment on SF-295 CNS, with SK-MEL-28 melanoma, in the experiment on SW-620 colon and in the experiment on OVCAR-3 ovarian was above 100 µM in each case. The TGI with RPMI-8226 leukemia, in the experiment on SF-268 CNS and with NCI/ADR-RES ovarian was above 100 µM each time.
On to `CCOC(=O)CCC(NC(=O)C(Cc1ccc([N+](=O)[O-])cc1)NC(=O)OC(C)(C)C)C(=O)NC(CCC(=O)OCC)C(=O)OCC` (stereo not drawn) (Boc-[Phe(4-NO2)]-Glu(OEt)-Glu(OEt)-OEt; configuration not given here), for which the total growth inhibition concentration (TGI) is 28.1 µM in the experiment on KM12 colon; 38.3 µM in the experiment with IGROV1 ovarian; 32.1 µM in the experiment on SK-MEL-28 melanoma; 40.2 µM with SW-620 colon; 43.3 µM with RPMI-8226 leukemia.
As to `O=C(c1ccccc1)c1nnn(Cc2ccccc2Cn2nnc(C(=O)c3ccccc3)c2C(=O)c2ccccc2)c1C(=O)c1ccccc1`, the total growth inhibition concentration (TGI) in the experiment on KM12 colon, in the experiment with IGROV1 ovarian, with SF-295 CNS, in the experiment with SK-MEL-28 melanoma, in the experiment with SW-620 colon and in the experiment with OVCAR-3 ovarian was above 100 µM in each case. In addition, the concentration for total growth inhibition (TGI) with RPMI-8226 leukemia, in the experiment with SF-268 CNS and with EKVX NSCLC was above 100 µM in each case.
`O=C1c2ccncc2C(=O)c2c(O)ccc(O)c21`: the TGI in the experiment on KM12 colon was found to be 32.8 µM; in the experiment on IGROV1 ovarian it was 25.9 µM; in the experiment with SF-295 CNS, 25.1 µM; with SK-MEL-28 melanoma it was 26.7 µM; in the experiment with SW-620 colon, 11.5 µM; in the experiment with OVCAR-3 ovarian it was 5.81 µM. Moreover, the TGI with RPMI-8226 leukemia is 30.4 µM; in the experiment with SF-268 CNS it was 24.2 µM; in the experiment with EKVX NSCLC, 32.1 µM.
With `Cc1cn(C2CC(COCc3ccccc3)N(CCO[Si](C)(C)C(C)(C)C)O2)c(=O)[nH]c1=O` (stereo not drawn), the TGI in the experiment with KM12 colon was 31.1 µM; with SF-295 CNS, 29.9 µM; in the experiment with SK-MEL-28 melanoma, 34.7 µM; in the experiment on SW-620 colon it was 35.6 µM; in the experiment with OVCAR-3 ovarian, 28.4 µM; with RPMI-8226 leukemia, 34.1 µM. The concentration for total growth inhibition (TGI) in the experiment with SF-268 CNS came to 35.7 µM; in the experiment with NCI/ADR-RES ovarian it was 28.9 µM.
